The values that follow come from US20210346359A1, “Use of CFTR Modulators For Treating Cerebrovascular Conditions” (Qanatpharma AG, priority 2018, published 2021).

“Also recorded” adds a separate entry of the source. Where two headings read alike, the source gives them in different places.

In test [1] the test system is olfactory cerebral artery. The note with it: recent observations (6); cited from earlier work.
Test [2] has as its system cremaster skeletal muscle resistance arteries. The experiment in a line: Cremaster skeletal muscle resistance artery myogenic tone and phenylephrine response with CFTR inhibition in vitro. To be noted: wild-type mouse arteries; in vitro 100 nmol/L for 30 minutes. How it is done:
Isolation and functional assessment of resistance arteries: Mouse olfactory (a first branch of the anterior cerebral artery) and PCAs were carefully dissected, cannulated onto micropipettes, stretched to their in vivo lengths and pressurized to 45 mmHg, as previously described (3,6); mouse skeletal muscle resistance arteries were dissected from the cremaster muscle, cannulated and pressurized to 60 mmHg. All functional experiments were conducted in 3-morpholinopropanesulfonic acid (MOPS) buffered saline at 37° C. with no perfusion. […]
Myogenic responses were elicited by step-wise 20 mmHg increases in transmural pressure from 20 mmHg to 80 mmHg (olfactory arteries) or 100 mmHg (posterior cerebral arteries and cremaster skeletal muscle resistance arteries). At each pressure step, vessel diameter (diaactive) was measured once a steady state was reached (5 min). Vessels requiring treatment (e.g., CFTR(inh)-172) were incubated with the reagent in MOPS for 30 min and myogenic responses were then assessed in the presence of that reagent. Following completion of all diaactive measurements, MOPS buffer was replaced with a Ca^2+-free version and maximal passive diameter (diamax) was recorded at each pressure step. […]

Test [3] has as its system posterior cerebral arteries. As to the kind of experiment: Phenylephrine responses of isolated posterior cerebral arteries. The test is classed as in vivo, mouse. The note with it: Mus musculus, posterior cerebral arteries, log scale, read-out: log EC50 of phenylephrine response (converted). The protocol: (§1) Isolation and functional assessment of resistance arteries: Mouse olfactory (a first branch of the anterior cerebral artery) and PCAs were carefully dissected, cannulated onto micropipettes, stretched to their in vivo lengths and pressurized to 45 mmHg, as previously described (3,6); mouse skeletal muscle resistance arteries were dissected from the cremaster muscle, cannulated and pressurized to 60 mmHg. All functional experiments were conducted in 3-morpholinopropanesulfonic acid (MOPS) buffered saline at 37° C. with no perfusion. Vasomotor responses to phenylephrine (5 μmol/L for posterior cerebral arteries, 10 μmol/L for cremaster skeletal muscle arteries) provided an assessment of vessel viability at the beginning and end of each experiment. Arteries failing to show ≥25% constriction to phenylephrine were excluded.
(§2) Myogenic tone was calculated as the percent constriction in relation to the maximal diameter at each respective transmural pressure: tone (% of diamax)=[(diamax−diaactive)/diamax]×100, where diaactive is the vessel diameter in MOPS containing Ca^2+ and diamax is the diameter in Ca^2+-free MOPS. Analyses of vasomotor responses to phenylephrine used the same calculation, only in this case, diaactive represents the vessel diameter at steady state following application of the given agent and diamax represents the maximal diameter measured under Ca^2+-free conditions.

In test [4] the test system is olfactory cerebral arteries. The experiment in a line: Phenylephrine responses of isolated olfactory cerebral arteries. It counts as in vivo, mouse. The note with it: Mus musculus, olfactory cerebral arteries, log scale, read-out: log EC50 of phenylephrine response (converted). How it is done:
as §1, §2

For a further test, the target named is T1, TNF (Mus musculus, UniProt P06804).
T1 sequence (P06804 1-235): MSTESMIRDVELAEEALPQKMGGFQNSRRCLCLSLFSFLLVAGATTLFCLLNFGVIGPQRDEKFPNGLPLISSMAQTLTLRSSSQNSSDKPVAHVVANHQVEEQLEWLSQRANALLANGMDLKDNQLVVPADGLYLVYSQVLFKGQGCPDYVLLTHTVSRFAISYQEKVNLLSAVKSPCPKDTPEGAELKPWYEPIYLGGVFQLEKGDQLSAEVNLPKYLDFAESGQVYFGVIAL
To be noted: HF and SAH models, cited from earlier work.

Turning to `O=C(O)c1ccc(/C=C2\SC(=S)N(c3cccc(C(F)(F)F)c3)C2=O)cc1` [CFTR(inh)-172], the “olfactory cerebral artery myogenic tone” value in test [1] is “augments”. Besides, in test [2], the “cremaster skeletal muscle resistance artery myogenic tone” value was “does not affect; also recorded: not altered” and the “phenylephrine dose-response relationship in cremaster arteries” value is recorded as “not altered”.
One may read the EC50 as the concentration that produces a half-maximal response. With `CNC[C@H](O)c1cccc(O)c1` [phenylephrine], the EC50 was 1 µM in test [3] (CFTRΔF508 mice); 0.562 µM in test [3] (HF mice untreated); 0.501 µM in test [3] (Sham (HF study)); 1.48 µM in test [3] (WT littermates); 0.977 µM in test [4] (SAH untreated (C18 study)); 1.17 µM in test [4] (SAH untreated (lumacaftor study)). For the same molecule, the EC50 in test [4] (Sham (C18 SAH study)) is 3.02 µM; in test [4] (Sham (lumacaftor SAH study)) it was 1.62 µM.
For the molecule etanercept, on TNF (earlier work (3,4,6)), the “HF- and SAH-mediated enhancement of cerebrovascular vasoconstriction (augmented myogenic tone)” value is on record as “eliminates”; the cerebral perfusion entry was “normalizes”. For the same molecule, the neuronal injury result on TNF (earlier work (5,6)) was “reduces”.
